Activity calls are given as the source filed them. The calls are words filed in the database; no cut-off is given here.
Key:
A2780 [1] = assay: Antimitotic activity against human A2780 cells at 10 uM by ATP lite luminescence assay; format: functional, cell-based
A2780 [2] = assay: Ratio of EC50 for dorsomorphin to EC50 for test compound for antimitotic activity against human A2780 cells by ATP lite luminescence assay; format: functional
MCF7 [3] = assay: Ratio of EC50 for dorsomorphin to EC50 for test compound for antimitotic activity against human MCF7 cells by ATP lite luminescence assay; format: functional
A2780 [4] = assay: Antimitotic activity against human A2780 cells by ATP lite luminescence assay; format: functional, cell-based
MCF7 [5] = assay: Antimitotic activity against human MCF7 cells by ATP lite luminescence assay; format: functional, cell-based
[6] = molecular target: T1, Tyrosine-protein kinase JAK1 (Homo sapiens, UniProt P23458); assay: Inhibition of wild-type human partial length JAK1 JH2 pseudokinase domain (R537 to D855 residues) expressed in mammalian expression system assessed as enzyme residual activity at 10 uM by Kinomescan method relative to control
T1 sequence (P23458 whole entry, the tested form may be a part): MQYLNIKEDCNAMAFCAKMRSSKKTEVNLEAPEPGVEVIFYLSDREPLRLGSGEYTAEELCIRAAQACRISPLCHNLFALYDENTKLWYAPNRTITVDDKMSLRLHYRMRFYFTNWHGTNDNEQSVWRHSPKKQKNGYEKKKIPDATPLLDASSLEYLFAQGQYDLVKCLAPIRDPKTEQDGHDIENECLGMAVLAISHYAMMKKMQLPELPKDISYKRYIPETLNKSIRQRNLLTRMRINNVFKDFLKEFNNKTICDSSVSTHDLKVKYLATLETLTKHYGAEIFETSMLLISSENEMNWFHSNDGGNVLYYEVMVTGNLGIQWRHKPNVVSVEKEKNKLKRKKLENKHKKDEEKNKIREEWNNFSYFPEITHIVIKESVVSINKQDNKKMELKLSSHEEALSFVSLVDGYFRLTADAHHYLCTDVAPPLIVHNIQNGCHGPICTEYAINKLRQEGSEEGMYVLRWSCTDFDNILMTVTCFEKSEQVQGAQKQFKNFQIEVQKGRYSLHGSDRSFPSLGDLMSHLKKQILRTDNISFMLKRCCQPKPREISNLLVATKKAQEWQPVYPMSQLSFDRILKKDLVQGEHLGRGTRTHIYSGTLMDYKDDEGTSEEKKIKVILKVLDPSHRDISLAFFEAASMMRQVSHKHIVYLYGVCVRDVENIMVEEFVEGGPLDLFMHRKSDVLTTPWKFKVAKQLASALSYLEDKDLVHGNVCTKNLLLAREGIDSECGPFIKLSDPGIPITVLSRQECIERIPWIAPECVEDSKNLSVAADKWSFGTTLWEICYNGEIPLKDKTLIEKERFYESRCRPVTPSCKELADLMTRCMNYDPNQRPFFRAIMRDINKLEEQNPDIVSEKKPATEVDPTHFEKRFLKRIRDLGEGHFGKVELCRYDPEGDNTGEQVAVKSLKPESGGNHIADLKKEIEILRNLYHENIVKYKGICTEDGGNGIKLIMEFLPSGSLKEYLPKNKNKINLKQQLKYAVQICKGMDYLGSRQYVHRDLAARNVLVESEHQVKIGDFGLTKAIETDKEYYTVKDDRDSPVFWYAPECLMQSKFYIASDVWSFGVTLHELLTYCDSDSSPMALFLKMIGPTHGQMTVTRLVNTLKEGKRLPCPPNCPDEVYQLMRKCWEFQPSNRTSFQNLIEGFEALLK

[7] = molecular target: T2, Ephrin type-B receptor 6 (Homo sapiens) (UniProt O15197); assay: Inhibition of wild-type human partial length EPHB6 (Q634 to P948 residues) expressed in mammalian expression system assessed as enzyme residual activity at 10 uM by Kinomescan method relative to control
T2 sequence (whole entry): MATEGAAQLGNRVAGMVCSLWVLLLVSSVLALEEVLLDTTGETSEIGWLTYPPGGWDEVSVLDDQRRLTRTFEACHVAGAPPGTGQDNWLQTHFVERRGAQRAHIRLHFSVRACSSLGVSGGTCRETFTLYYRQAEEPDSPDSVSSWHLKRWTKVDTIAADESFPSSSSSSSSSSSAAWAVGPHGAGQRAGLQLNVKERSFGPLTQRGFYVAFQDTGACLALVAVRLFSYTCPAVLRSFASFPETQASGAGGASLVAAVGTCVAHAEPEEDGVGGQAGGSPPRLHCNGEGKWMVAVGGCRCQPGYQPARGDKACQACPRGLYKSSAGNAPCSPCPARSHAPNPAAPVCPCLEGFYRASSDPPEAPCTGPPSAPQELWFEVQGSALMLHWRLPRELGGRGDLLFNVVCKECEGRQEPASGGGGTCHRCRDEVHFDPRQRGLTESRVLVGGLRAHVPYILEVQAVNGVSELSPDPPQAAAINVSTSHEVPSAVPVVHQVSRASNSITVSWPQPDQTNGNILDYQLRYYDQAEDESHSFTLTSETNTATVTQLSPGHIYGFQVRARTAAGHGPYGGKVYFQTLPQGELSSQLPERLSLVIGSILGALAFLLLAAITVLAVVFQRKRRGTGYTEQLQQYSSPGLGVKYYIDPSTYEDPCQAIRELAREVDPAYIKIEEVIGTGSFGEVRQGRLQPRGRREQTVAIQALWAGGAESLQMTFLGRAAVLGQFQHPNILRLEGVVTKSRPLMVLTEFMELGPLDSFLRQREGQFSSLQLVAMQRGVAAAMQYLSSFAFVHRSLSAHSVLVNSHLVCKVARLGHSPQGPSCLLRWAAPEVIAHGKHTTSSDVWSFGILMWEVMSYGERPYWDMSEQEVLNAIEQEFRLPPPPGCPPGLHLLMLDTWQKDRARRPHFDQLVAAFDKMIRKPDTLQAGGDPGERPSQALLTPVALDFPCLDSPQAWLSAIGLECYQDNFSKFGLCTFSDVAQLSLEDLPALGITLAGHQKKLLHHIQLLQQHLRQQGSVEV

[8] = molecular target: Non-receptor tyrosine-protein kinase TYK2 (Homo sapiens) (UniProt P29597); assay: Inhibition of wild-type human partial length TYK2 JH2 pseudokinase domain (G556 to D888 residues) expressed in mammalian expression system assessed as enzyme residual activity at 10 uM by Kinomescan method relative to control
Chain of Non-receptor tyrosine-protein kinase TYK2 (Homo sapiens) (P29597 whole entry, the tested form may be a part): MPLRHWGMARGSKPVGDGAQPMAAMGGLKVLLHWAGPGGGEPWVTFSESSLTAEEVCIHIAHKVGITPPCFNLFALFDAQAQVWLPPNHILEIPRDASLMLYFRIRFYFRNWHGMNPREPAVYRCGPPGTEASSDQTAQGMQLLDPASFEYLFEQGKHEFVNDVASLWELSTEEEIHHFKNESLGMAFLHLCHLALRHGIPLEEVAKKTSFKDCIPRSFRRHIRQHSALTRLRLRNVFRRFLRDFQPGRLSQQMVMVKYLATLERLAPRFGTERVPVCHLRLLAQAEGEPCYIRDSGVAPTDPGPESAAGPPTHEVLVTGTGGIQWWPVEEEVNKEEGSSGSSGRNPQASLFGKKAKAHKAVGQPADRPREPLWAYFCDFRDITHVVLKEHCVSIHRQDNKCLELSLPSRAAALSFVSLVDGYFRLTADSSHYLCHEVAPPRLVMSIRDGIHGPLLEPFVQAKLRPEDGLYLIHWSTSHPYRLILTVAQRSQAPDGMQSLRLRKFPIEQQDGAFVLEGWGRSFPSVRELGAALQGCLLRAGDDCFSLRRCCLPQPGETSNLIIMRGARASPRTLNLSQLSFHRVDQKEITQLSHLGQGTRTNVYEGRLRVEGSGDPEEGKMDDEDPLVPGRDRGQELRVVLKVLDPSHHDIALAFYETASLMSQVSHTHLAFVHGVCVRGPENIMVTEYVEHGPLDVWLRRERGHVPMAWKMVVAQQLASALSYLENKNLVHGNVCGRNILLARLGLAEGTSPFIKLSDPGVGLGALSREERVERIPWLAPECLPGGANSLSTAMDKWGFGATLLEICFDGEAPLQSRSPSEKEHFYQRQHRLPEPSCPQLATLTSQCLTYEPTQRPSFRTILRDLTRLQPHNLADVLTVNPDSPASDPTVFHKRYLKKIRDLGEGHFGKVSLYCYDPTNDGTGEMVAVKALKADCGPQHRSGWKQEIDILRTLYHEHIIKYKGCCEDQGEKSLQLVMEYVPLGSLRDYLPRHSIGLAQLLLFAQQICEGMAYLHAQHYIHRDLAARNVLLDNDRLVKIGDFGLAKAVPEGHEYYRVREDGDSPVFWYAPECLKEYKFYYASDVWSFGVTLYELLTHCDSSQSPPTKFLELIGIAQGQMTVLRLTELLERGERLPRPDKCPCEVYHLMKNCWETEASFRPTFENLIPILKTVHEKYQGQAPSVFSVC

[9] = molecular target: T3, Phosphatidylinositol 3-kinase catalytic subunit type 3 (Homo sapiens, UniProt Q8NEB9); assay: Inhibition of wild-type human partial length PIK3C3 (S282 to H879 residues) expressed in mammalian expression system assessed as enzyme residual activity at 10 uM by Kinomescan method relative to control
T3 sequence (Q8NEB9 whole entry, the tested form may be a part): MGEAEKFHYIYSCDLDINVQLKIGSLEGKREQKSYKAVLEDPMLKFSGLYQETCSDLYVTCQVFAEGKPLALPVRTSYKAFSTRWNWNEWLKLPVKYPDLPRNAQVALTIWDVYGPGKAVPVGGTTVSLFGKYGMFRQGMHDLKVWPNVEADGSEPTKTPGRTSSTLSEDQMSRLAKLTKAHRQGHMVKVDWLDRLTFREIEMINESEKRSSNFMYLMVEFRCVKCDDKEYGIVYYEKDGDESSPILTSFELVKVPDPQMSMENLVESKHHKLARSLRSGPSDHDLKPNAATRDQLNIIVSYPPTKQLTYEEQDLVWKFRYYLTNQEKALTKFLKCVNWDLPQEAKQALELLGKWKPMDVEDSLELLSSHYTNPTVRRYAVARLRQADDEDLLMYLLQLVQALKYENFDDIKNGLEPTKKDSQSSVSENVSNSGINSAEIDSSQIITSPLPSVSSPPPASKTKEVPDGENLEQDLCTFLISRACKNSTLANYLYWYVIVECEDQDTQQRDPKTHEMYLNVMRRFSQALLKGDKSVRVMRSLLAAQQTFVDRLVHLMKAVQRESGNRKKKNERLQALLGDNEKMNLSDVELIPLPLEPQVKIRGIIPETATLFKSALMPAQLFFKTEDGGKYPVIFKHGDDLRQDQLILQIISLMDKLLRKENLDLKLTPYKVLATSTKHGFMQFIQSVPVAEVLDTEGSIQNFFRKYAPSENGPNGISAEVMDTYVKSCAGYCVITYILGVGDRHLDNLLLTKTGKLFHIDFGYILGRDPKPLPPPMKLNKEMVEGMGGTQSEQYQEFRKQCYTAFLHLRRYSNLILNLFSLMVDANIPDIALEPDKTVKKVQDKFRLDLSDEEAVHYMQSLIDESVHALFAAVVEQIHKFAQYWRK

[10] = molecular target: T4, Dual specificity mitogen-activated protein kinase kinase 5 (Homo sapiens) (UniProt Q13163); assay: Inhibition of wild-type human partial length MEK5 (L98 to P448 residues) expressed in mammalian expression system assessed as enzyme residual activity at 10 uM by Kinomescan method relative to control
T4 sequence (whole entry): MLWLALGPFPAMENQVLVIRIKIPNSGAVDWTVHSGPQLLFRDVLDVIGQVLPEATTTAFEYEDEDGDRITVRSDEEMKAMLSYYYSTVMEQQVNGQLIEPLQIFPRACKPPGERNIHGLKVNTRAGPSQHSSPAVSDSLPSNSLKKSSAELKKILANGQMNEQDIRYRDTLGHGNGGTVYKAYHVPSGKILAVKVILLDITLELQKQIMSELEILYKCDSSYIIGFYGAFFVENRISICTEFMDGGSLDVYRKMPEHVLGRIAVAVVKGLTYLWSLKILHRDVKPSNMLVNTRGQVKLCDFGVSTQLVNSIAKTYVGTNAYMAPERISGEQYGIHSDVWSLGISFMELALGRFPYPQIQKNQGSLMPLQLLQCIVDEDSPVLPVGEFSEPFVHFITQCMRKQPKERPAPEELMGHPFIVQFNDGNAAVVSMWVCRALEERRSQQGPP

[11] = molecular target: T3, Phosphatidylinositol 3-kinase catalytic subunit type 3; assay: Binding affinity to wild-type human partial length PIK3C3 (S282 to H879 residues) expressed in mammalian expression system at 10 uM by Kinomescan method relative to control
Homo sapiens = organism: Homo sapiens; assay: Ratio for inhibition of wild-type human partial length TYK2 JH2 pseudokinase domain (G556 to D888 residues) expressed in mammalian expression system at 10 uM by Kinomescan method relative to control to inhibition of wild-type human partial length JAK1 JH2 pseudokinase domain (R537 to D855 residues) expressed in mammalian expression system at 10 uM by Kinomescan method relative to control
[12] = molecular target: T1, Tyrosine-protein kinase JAK1; assay: Binding affinity to wild-type human partial length JAK1 JH2 pseudokinase domain (R537 to D855 residues) expressed in mammalian expression system at 10 uM by Kinomescan method relative to control

SMILES | EC50 (A2780 [4]) [nM] | EC50 (MCF7 [5]) [nM] | Activity (A2780 [1]) | also measured
Fc1ccccc1-c1cnn2cc(-c3ccc(OCCN4CCCCC4)cc3)cnc12 | 2700 | 2800 | Active | 
c1cc(-c2cnn3cc(-c4ccc(OCCN5CCCCC5)cc4)cnc23)ccn1 [DORSOMORPHIN] | 900 to 1100 | 4900 |  | 
CN1CCN(CCOc2ccc(-c3cnc4c(-c5ccc(C(F)(F)F)cc5)cnn4c3)cc2)CC1 | 2900 |  | Active | 
Fc1cccc(-c2cnn3cc(-c4ccc(OCCN5CCCCC5)cc4)cnc23)c1 | 1200 | 2200 | Active | Activity [6]: 41%; Activity [7]: < 10%; Activity [8]: < 10%; Activity [9]: 100%
Fc1cccc(-c2cnn3cc(-c4ccc(OCCN5CCCCC5)cc4)cnc23)c1F | 1400 | 4300 | Active | 
FC(F)(F)c1ccc(-c2cnn3cc(-c4ccc(OCCN5CCCCC5)cc4)cnc23)cc1 | 2300 | 1600 | Active | 

Further molecules by falling EC50 (A2780 [4]), results first:

EC50 (A2780 [4]) [nM] | EC50 (MCF7 [5]) [nM] | SMILES | Activity (A2780 [1]) | also measured
1100 |  | CN1CCN(CCOc2ccc(-c3cnc4c(-c5ccc(F)cc5)cnn4c3)cc2)CC1 | Active | 
950 |  | CN1CCN(CCOc2ccc(-c3cnc4c(-c5cccc(F)c5)cnn4c3)cc2)CC1 | Active | 
930 | 3600 | Fc1ccc(-c2cnn3cc(-c4ccc(OCCN5CCCCC5)cc4)cnc23)cc1 | Active | 
900 |  | c1ccc2sc(-c3cnn4cccnc34)nc2c1 | Active | Activity [6]: 0.8%; Activity [7]: 9.9%; Activity [10]: 3.9%; Kd [11]: 410 nM; Activity [8]: 5%; Ratio (Homo sapiens): 6; Kd [12]: 550 nM; Activity [9]: 0.9%
840 |  | CN1CCN(CCOc2ccc(-c3cnc4c(-c5cccc(F)c5F)cnn4c3)cc2)CC1 | Active | 
520 |  | CN1CCN(CCOc2ccc(-c3cnc4c(-c5ccccc5F)cnn4c3)cc2)CC1 | Active | Ratio EC50 (A2780 [2]): 2; Ratio EC50 (MCF7 [3]): 3

Reference: ChEMBL document CHEMBL4602637, “Synthesis and biological evaluation of novel pyrazolo[1,5-a]pyrimidines: Discovery of a selective inhibitor of JAK1 JH2 pseudokinase and VPS34” (Bioorg Med Chem Lett, 2020)
